Results taken from ChEMBL document CHEMBL5512671, “Structure-Based Optimization of Novel Sterol 24-C-Methyltransferase Inhibitors for the Treatment of Candida albicans Infections” (J Med Chem, 2024).
Converted amounts (≈) assume the structure as drawn. The source made the active and inactive calls. The calls are words filed in the database; no cut-off is given here.

How the values were obtained:
Candida albicans [1] = experiment: Antifungal activity against Candida albicans SC5314 assessed as inhibition of hyphae growth incubated for 24 hrs by CLSI protocol based broth microdilution method; type: functional
[2] = molecular target: T1, Sterol 24-C-methyltransferase (Candida albicans (strain SC5314 / ATCC MYA-2876) (Yeast), UniProt O74198); experiment: Inhibition of recombinant Candida albicans SC5314 Erg6 methyltransferase activity using zymosterol as substrate incubated for 15 mins followed by substrate addition by liquid scintillation counter analysis
T1 sequence (O74198 whole entry): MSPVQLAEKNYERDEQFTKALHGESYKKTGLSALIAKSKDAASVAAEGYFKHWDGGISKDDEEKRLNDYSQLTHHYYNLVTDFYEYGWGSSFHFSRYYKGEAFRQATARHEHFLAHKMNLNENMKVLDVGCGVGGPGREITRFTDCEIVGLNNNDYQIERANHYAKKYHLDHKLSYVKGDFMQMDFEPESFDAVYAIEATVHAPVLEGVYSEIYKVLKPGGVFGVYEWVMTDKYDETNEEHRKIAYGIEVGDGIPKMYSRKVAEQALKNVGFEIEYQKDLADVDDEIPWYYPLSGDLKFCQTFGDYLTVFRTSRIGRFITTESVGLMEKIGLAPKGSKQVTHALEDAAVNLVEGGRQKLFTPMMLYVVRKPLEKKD

Candida albicans [3] = experiment: Synergistic antifungal activity against Candida albicans SC5314 assessed as inhibition of fungal growth incubated for 24 hrs in presence of terbinafine by broth microdilution checkerboard assay; type: functional
[4] = Cytotoxicity against human HUVEC cells incubated for 48 hrs by CCK-8 method; type: toxicity, cell-based
[5] = Cytotoxicity against human BEAS-2B cells incubated for 48 hrs by CCK-8 method; type: toxicity, cell-based
Candida albicans [6] = experiment: Synergistic antifungal activity against Candida albicans SC5314 assessed as inhibition of fungal growth incubated for 24 hrs in presence of tridemorph by broth microdilution checkerboard assay; type: functional
Candida albicans [7] = experiment: Synergistic antifungal activity against Candida albicans SC5314 assessed as fractional inhibitory concentration index incubated for 24 hrs in presence of tridemorph by broth microdilution checkerboard assay; type: functional
Candida albicans [8] = experiment: Antifungal activity against Candida albicans SC5314 assessed as inhibition of hyphae growth measured after 30 passages; type: functional, organism-based
Candida albicans [9] = experiment: Synergistic antifungal activity against Candida albicans SC5314 assessed as fractional inhibitory concentration index incubated for 24 hrs in presence of terbinafine by broth microdilution checkerboard assay; type: functional
[10] = Hemolytic activity in mouse RBC assessed as hemolysis at 2 to 32 ug/ml incubated for 60 mins by absorbance based analysis relative to control; type: toxicity, cell-based, Erythrocyte; settings: mouse red blood cells, at 2 to 32 µg/mL, dose 2-32 µg/ml, read-out: Activity
Candida albicans [11] = experiment: Antifungal activity against Candida albicans SC5314 assessed as inhibition of fungal growth incubated for 24 hrs by CLSI protocol based broth microdilution method; type: functional
Candida albicans [12] = experiment: Synergistic antifungal activity against Candida albicans SC5314 assessed as inhibition of fungal growth incubated for 24 hrs in presence of (Z)-1,5-dimethyl-4-(4-(naphthalen-2-yl)-2-(phenylimino)thiazol-3(2H)-yl)-2-phenyl-1,2-dihydro-3H-pyrazol-3-one by broth microdilution checkerboard assay; type: functional
Candida albicans [13] = experiment: Synergistic antifungal activity against Candida albicans SC5314 assessed as inhibition of fungal growth incubated for 24 hrs in presence of (Z)-4-(4-(4-bromophenyl)-2-(phenylimino)thiazol-3(2H)-yl)-1,5-dimethyl-2-phenyl-1,2-dihydro-3H-pyrazol-3-one by broth microdilution checkerboard assay; type: functional
Candida albicans [14] = experiment: Antifungal activity against Candida albicans erg6delta/delta assessed as inhibition of fungal growth incubated for 24 hrs by CLSI protocol based broth microdilution method; type: functional
Candida albicans [15] = experiment: Antifungal activity against Candida albicans SN152 assessed as inhibition of fungal growth incubated for 24 hrs by CLSI protocol based broth microdilution method; type: functional

Row | Structure (SMILES) | MIC50 (Candida albicans [1]) [µg/mL] | IC50 [2] [µM] | MIC80 (Candida albicans [3]) [µg/mL] | EC50 at 48 h [4] [µg/mL] | EC50 at 48 h [5] [µg/mL] | MIC80 (Candida albicans [6]) [µg/mL] | fractional inhibitory concentration index (FICI) (Candida albicans [7]) | Activity (Candida albicans [8]) | fractional inhibitory concentration index (FICI) (Candida albicans [9]) | hemolysis at 1 h [10] [%] | MIC80 (Candida albicans [11]) [µg/mL] | MIC80 (Candida albicans [12]) [µg/mL] | MIC80 (Candida albicans [13]) [µg/mL] | MIC80 (Candida albicans [14]) [µg/mL] | MIC80 (Candida albicans [15]) [µg/mL]
1 | Cc1c(-n2c(-c3ccc(Br)cc3)cs/c2=N\c2ccccc2)c(=O)n(-c2ccccc2)n1C | 2 (≈ 3.87 µM) | 1.01 | 8 | > 50 | > 50 | 8 | <0.1 | Active | <0.1 | < 1 | > 128 |  |  |  | 
2 | CCCCCCCCCCCCCN1CC(C)OC(C)C1 (stereo unspecified) [TRIDEMORPH] |  |  |  |  |  |  |  |  |  |  | > 128 | 0.008 | 0.5 | 0.008 (≈ 0.0269 µM) | > 128
3 | CN(C/C=C/C#CC(C)(C)C)Cc1cccc2ccccc12 [TERBINAFINE] |  |  |  |  |  |  |  |  |  |  | 32 (≈ 110 µM) | 0.008 | 0.5 | 0.5 (≈ 1.72 µM) | 32 (≈ 110 µM)
